Experiment: RP, Agilent ZORBAX Eclipse Plus C18, 150 × 2.1 mm, 3.5 µm, 40 °C, 0.3 mL/min, estimated dead time 1.1 min; A: water + 0.1% formic acid; B: acetonitrile + 0.1% formic acid; gradient (min/%B) 0/2 1/2 2/20 16.5/98 22/98
Details: stereoisomer not certain

SMILES | LC retention time [min]
On1nnc2ccccc21 | 5.24
COc1cc2c(cc1OC)C(=O)C(CC1CCN(Cc3ccccc3)CC1)C2 (stereo unspecified) | 7.43
Cc1cc(C(C)(C)C)c(O)c(C)c1CC1=NCCN1 | 7.43
COc1cc(C(=O)O)cc(OC)c1O | 5.7
CN1CCC23CCCCC2C1Cc1ccc(O)cc13 (stereo unspecified) | 5.97
CN1C(=O)NC(=O)C1(C)C | 5.06
C[N+](C)(C)c1ccccc1 | 2.83
CC(C)(C)CC(C)(C)c1ccc(OCCOCC[N+](C)(C)Cc2ccccc2)cc1 | 11.5
C#CC1(O)CCC2C3CCC4=C(CCC(=O)C4)C3CCC21C (stereo unspecified) | 11.1
CCCCCCCC[N+](C)(C)CCCCCCCC | 11.7
NCC1(CC(=O)O)CCCCC1 | 4.88
CC(=O)Nc1ccc(C)cc1 | 7.71
Cc1ccc(C(=O)c2cc(O)c(O)c([N+](=O)[O-])c2)cc1 | 11.1
C#CC1(O)CCC2C3CCC4=CC(=O)CCC4C3CCC21CC (stereo unspecified) | 12.1
COP(=O)(OC)OC | 4.97
Nc1nc(NC2CC2)c2ncn(C3C=CC(CO)C3)c2n1 (stereo unspecified) | 5.09
CCCC(=O)Nc1ccc(OCC(O)CNC(C)C)c(C(C)=O)c1 (stereo unspecified) | 5.96
COc1ccc2cc(C(C)C(=O)O)ccc2c1 (stereo unspecified) | 10.9
NC(Cc1ccc(O)cc1)C(=O)O (stereo unspecified) | 2.61
CC[P+](c1ccccc1)(c1ccccc1)c1ccccc1 | 7.39
C#CCC1=C(C)C(OC(=O)C2C(C=C(C)C)C2(C)C)CC1=O (stereo unspecified) | 14.9
O=C(O)C(c1ccccc1)C1CCCCN1 (stereo unspecified) | 4.91
CCCCCCCCCC[N+](C)(C)CCCCCCCCCC | 13.4
NC12CC3CC(CC(C3)C1)C2 | 5.15
COC1CC(CC2CCC(C)C(C(C)C(=O)O)O2)OC2(OC(C)(C3CCC(C)(C4OC(C5OC(O)(CO)C(C)CC5C)CC4C)O3)CC2C)C1C (stereo unspecified) | 21.2

SMILES | LC retention time [min]
CCN(C)C(=O)Oc1cccc(C(C)N(C)C)c1 (stereo unspecified) | 6.08
CCCC[N+](CCCC)(CCCC)CCCC | 8.91
CC(=O)OCCCC[P+](c1ccccc1)(c1ccccc1)c1ccccc1 | 8.85
O=P(O)(c1ccccc1)c1ccccc1 | 7.24
CC12C=CC(=O)C=C1CCC1C2C(O)CC2(C)C1CCC2(O)C(=O)CO (stereo unspecified) | 8.43
CC(=C(CCO)SSC(CCO)=C(C)N(C=O)Cc1cnc(C)nc1N)N(C=O)Cc1cnc(C)nc1N | 4.48
CC[N+](CC)(CC([O-])=Nc1c(C)cccc1C)Cc1ccccc1 | 7.58
O=P(O)(O)c1ccccc1 | 3.09
CC(C)CC(CN)CC(=O)O (stereo unspecified) | 5.17
Cc1cc(NS(=O)(=O)c2ccc(N)cc2)no1 | 7.25
COC1C=COC2(C)Oc3c(C)c(O)c4c(O)c(c5c(nc6cc(C)ccn65)c4c3C2=O)NC(=O)C(C)=CC=CC(C)C(O)C(C)C(O)C(C)C(OC(C)=O)C1C (stereo unspecified) | 11.8
CCCCCCCCCCCCCCCC[N+](C)(C)CC | 13
CN(C)[P+](On1nnc2ccccc21)(N(C)C)N(C)C | 5.97
CC(C)c1ccc(OP(=O)(Oc2ccc(C(C)C)cc2)Oc2ccc(C(C)C)cc2)cc1 | 18.9
CC1(C)CC(OC(=O)CCCCCCCCC(=O)OC2CC(C)(C)NC(C)(C)C2)CC(C)(C)N1 | 6.57
CSc1nc2ccccc2s1 | 12.2
CN(C)c1ccc(C(=C2C=CC(N(C)C)C=C2)c2ccccc2)cc1 (stereo unspecified) | 9.29
CCNc1nc(NC(C)(C)C)nc(SC)n1 | 9.67
CCCCP(=O)(O)O | 4.77
O=c1[nH]c2ccccc2s1 | 7.78
COc1cc(C(=O)O)cc(OC)c1OC | 7.63
CN(C)CC(c1ccc(O)cc1)C1(O)CCCCC1 (stereo unspecified) | 5.37
NP(=O)(c1ccccc1)c1ccccc1 | 7.41
O=C([O-])CC[P+](c1ccccc1)(c1ccccc1)c1ccccc1 | 6.75
CCCCCCCCCCCCCCCC[P+](CCCC)(CCCC)CCCC | 16

More lines, now with the values ahead:

LC retention time [min] | SMILES
6.44 | CNCC(c1ccc(OC)cc1)C1(O)CCCCC1 (stereo unspecified)
12.8 | CCCCCCCCCCCCCCCC[N+](C)(C)C
15.4 | CCC(C)(C)C(=O)OC1CC(C)C=C2C=CC(C)C(CCC3CC(O)CC(=O)O3)C21 (stereo unspecified)
2.85 | O=c1[nH]c(=O)c2cn[nH]c2[nH]1
9.96 | CC12CC=C3c4ccc(O)cc4CCC3C1CCC2(O)CC#N (stereo unspecified)
5.59 | COC12C(COC(N)=O)C3=C(C(=O)C(C)=C(N)C3=O)N1CC1NC12 (stereo unspecified)
2.46 | Nc1ccn(C2CSC(C(=O)O)O2)c(=O)n1 (stereo unspecified)
8.32 | CC12CCC(=O)C=C1CCC1C2C(O)CC2(C)C1CCC2(O)C(=O)CO (stereo unspecified)
7.72 | COC(=O)C[P+](c1ccccc1)(c1ccccc1)c1ccccc1
5.59 | CC(=O)Nc1c(C)n(C)n(-c2ccccc2)c1=O
4.94 | Cn1c(=O)c2[nH]cnc2n(C)c1=O
4.44 | Cn1cnc2[nH]c(=O)[nH]c(=O)c21
8.5 | O=c1c2ccccc2[nH]c2ccccc12
7.35 | CC1(C)OCC2OC3(C(=O)O)OC(C)(C)OC3C2O1 (stereo unspecified)
4.83 | CNC(=C[N+](=O)[O-])NCCSCc1ccc(CN(C)C)o1
13.8 | CC(C)(c1ccc(O)c([N+](=O)[O-])c1)c1ccc(O)c([N+](=O)[O-])c1
13.1 | CCCCC1C(=O)N(c2ccccc2)N(c2ccccc2)C1=O
5.11 | CC(C)NCC(O)COc1ccc(CCO)cc1 (stereo unspecified)

LC retention time [min] | SMILES
7.98 | c1ccc([P+](CCC2OCCCO2)(c2ccccc2)c2ccccc2)cc1
9.13 | CCCC[N+](CCCC)(CCCC)Cc1ccccc1
4.42 | COC(=O)Nc1cccc(N)c1C
19.6 | CC(C)(C)CC(C)(C)c1ccc(O)c(-n2nc3ccccc3n2)c1
8 | CC(CN1c2ccccc2Sc2ccccc21)N(C)C (stereo unspecified)
2.6 | Nc1nc2c(ncn2CCC(CO)CO)c(=O)[nH]1
8.09 | COc1cc(NS(=O)(=O)c2ccc(N)cc2)nc(OC)n1
4.67 | Cc1ccccc1N=C(N)N=C(N)N
2.23 | Nc1nc2c(ncn2COC(CO)CO)c(=O)[nH]1
9.05 | O=P(O)(OCc1ccccc1)OCc1ccccc1
5.02 | c1ccc(C2CN3CCSC3=N2)cc1 (stereo unspecified)
4.24 | CCCCN1C=CC=CC1
9.47 | CSc1ccc2c(c1)N(CCC1CCCCN1C)c1ccccc1S2 (stereo unspecified)
4.39 | CN1CCCC1=O
5.62 | O=C(O)c1ccc(O)cc1
7.19 | C[P+](c1ccccc1)(c1ccccc1)c1ccccc1
4.58 | CC(=O)Nc1ccc(OC2OC(C(=O)O)C(O)C(O)C2O)cc1 (stereo unspecified)
4.46 | CC(=O)Nc1cc(N)cc(C(=O)O)c1

— the RepoRT retention time repository (doi:10.1016/j.chroma.2015.11.014)
